System: primary CLL samples
Test: TMT-tagging and mass-spectrometry profiling of relative protein abundance after compound exposure
Type: cell-based, human
From the text: Data import: Relative abundance (RA) data was imported into the R statistical programming environment v.3.1.2. Proteins with less than one spectral count in any of the three MS runs for each case scenario were filtered out and relative abundance was scale normalized to the same median by using normalizeBetweenArrays( ) function implemented in the limma package for Bioconductor (see Yang et al., Nucleic Acids Research, 30(4), e15 (2002)).
Comparative analysis: RA scores were log 2-transformed to perform direct comparison of compounds exposure versus DMSO control and a paired moderated t-test (see Smyth, Statistical Applications in Genetics and Molecular Biology, 3(1), article 3 (2004)) was performed by using lmfit( ) and eBayes( ) functions form limma package to test differential relative abundance between experimental conditions. For differential analysis across cases, the log-2 fold changes of replicates for two of the case scenarios were considered.
Linear regression analysis: Linear regression was modeled by using lm( ) function from the stats package. This function provided the correlation coefficients as well as the linear fitted model. Data were assessed for outliers detection within the linear model via the Studentized residuals method (implemented in outlierTest( ) function from car package) and deemed significant if their q-values were under a threshold of 0.05 (5%).
The proteins subjected to the analysis were those with more than one spectral count matched in three MS runs representing each case scenario. A total of 6114, 6070, 5982 and 5382 proteins were retained for each case scenario. Differential expression analysis was applied to the high and consistent coverage of 4594 proteins quantified across all case scenarios. FIGS. 2A-2D show distribution of normalized relative abundances for each replicate of the four case scenarios (Cases B1-B4). The standard deviation of each replicate is represented as a stair-plot line at the bottom of the boxplot. FIGS. 3A-3D show heatmaps representing correlations of log 2 fold-changes of protein levels post compound treatment as compared with DMSO across conditions for all case scenarios. Low correlation of log 2 fold-changes at 6 hours may be due to the alteration of a small subset of proteins at an early time point without strong general effects across the proteome. Stronger correlations at 24 hours can be linked to a higher proportion of proteins perturbed reflecting downstream changes upon compound exposure.

[1] = Cmp A vs. len, Case B1, 10 μM, 24 hours
[2] = Cmp A vs. len, Case B2, 10 μM, 24 hours
[3] = Cmp A vs. len, Case B3, 10 μM, 24 hours
[4] = FIG. 5 heatmap, 10 μM, 24 hours, vs DMSO

**Q.** `Cc1nc2cccc(N)c2c(=O)n1C1CCC(=O)NC1=O` (stereo not drawn) [Compound A, 3-(5-amino-2-methyl-4-oxo-4H-quinazolin-3-yl)-piperidine-2,6-dione] was tested. Which “RA upon Cmp A vs. len treatment, SOD2 (P04179)” value (Case B3, 10 μM, 24 hours) did it give?
**A.** Its value is “Higher”.

**Q.** What about the “RA upon Cmp A vs. len treatment, TRAF1 (Q13077)” value (Case B3, 10 μM, 24 hours) of the same compound?
**A.** Its value is “Higher”.

**Q.** And the IRF5 protein level (Case B4 (not quantified in B2))?
**A.** Its IRF5 protein level is “exclusively decreased”.

**Q.** What about the “RA upon Cmp A vs. len Treatment, PDE6D (O43924)” value (Case B4, 10 μM, 24 hours) of the same compound?
**A.** Its value is “Lower”.

**Q.** And the “logFC BCL2L1 (Q07817)” value [1]?
**A.** Its value is 0.5326.

**Q.** What about the “logFC GZMB (P10144)” value [1] of the same compound?
**A.** The value was −1.175.

**Q.** What about the “logFC IGHM (P01871-2)” value [1] of the same compound?
**A.** The value was −0.6625.

**Q.** What about the “logFC IKZF1 (Q13422)” value [1] of the same compound?
**A.** The value was −1.709.

**Q.** And the “logFC IKZF1 (Q13422-2)” value [1]?
**A.** Its value is −2.169.

**Q.** And the “logFC IRF8 (Q02556)” value [1]?
**A.** The value was −0.5643.

**Q.** What about the “logFC KLF13 (Q9Y2Y9)” value [1] of the same compound?
**A.** The value was −1.092.

**Q.** What about the “logFC LGALS9 (O00182)” value [1] of the same compound?
**A.** Its value is −0.5646.

**Q.** What about the “logFC MARCKS (P29966)” value [1] of the same compound?
**A.** The value was 1.438.

**Q.** And the “logFC NDE1 (Q9NXR1)” value [1]?
**A.** Its value is 0.7281.

**Q.** What about the “logFC NFKBIE (O00221)” value [1] of the same compound?
**A.** The value was −0.7408.

**Q.** What about the “logFC PTK2B (Q14289-2)” value [1] of the same compound?
**A.** Its value is 0.9815.

**Q.** What about the “logFC SAMSN1 (Q9NSI8)” value [1] of the same compound?
**A.** Its value is 0.6554.

**Q.** And the “logFC SELL (P14151-2)” value [1]?
**A.** Its value is −1.823.

**Q.** What about the “logFC SLAMF1 (Q13291)” value [1] of the same compound?
**A.** The value was 0.9251.

**Q.** What about the “logFC SNX20 (Q7Z614)” value [1] of the same compound?
**A.** The value was −0.5611.

**Q.** What about the “logFC SOD2 (P04179)” value [1] of the same compound?
**A.** The value was 0.6081.

**Q.** And the “logFC TCF7 (P36402-3)” value [1]?
**A.** Its value is −0.7071.

**Q.** And the “logFC TRAF1 (Q13077)” value [1]?
**A.** Its value is 0.768.

**Q.** What about the “logFC WIZ (M0QXA7)” value [1] of the same compound?
**A.** Its value is −0.4839.

**Q.** And the “logFC ZBTB10 (Q96DT7)” value [1]?
**A.** The value was 0.9382.

**Q.** What about the “logFC IKZF1 (Q13422)” value [2] of the same compound?
**A.** Its value is −2.186.

**Q.** What about the “logFC IKZF3 (Q9UKT9)” value [2] of the same compound?
**A.** The value was −2.626.

**Q.** What about the “logFC CD40 (P25942)” value [3] of the same compound?
**A.** The value was 0.8064.

**Q.** What about the “logFC CR2 (P20023-3)” value [3] of the same compound?
**A.** The value was 0.7925.

**Q.** And the “logFC CTSS (P25774)” value [3]?
**A.** Its value is 0.5932.

**Q.** What about the “logFC GBP1 (P32455)” value [3] of the same compound?
**A.** The value was 1.117.

**Q.** And the “logFC IKZF1 (Q13422)” value [3]?
**A.** The value was −2.686.

**Q.** And the “logFC IKZF3 (Q9UKT9)” value [3]?
**A.** The value was −1.425.

**Q.** What about the “logFC ISG20 (Q96AZ6)” value [3] of the same compound?
**A.** The value was 0.6234.

**Q.** What about the “logFC PTK2B (Q14289-2)” value [3] of the same compound?
**A.** Its value is 0.8361.

**Q.** And the “logFC SAMSN1 (Q9NSI8)” value [3]?
**A.** The value was 0.89.

**Q.** What about the “logFC SASH1 (O94885)” value [3] of the same compound?
**A.** Its value is 0.7177.

**Q.** And the “logFC SELL (P14151-2)” value [3]?
**A.** Its value is −1.03.

**Q.** And the “logFC SEMA7A (O75326)” value [3]?
**A.** The value was 0.904.

**Q.** What about the “logFC SLAMF1 (Q13291)” value [3] of the same compound?
**A.** The value was 1.086.

**Q.** What about the “logFC SOD2 (P04179)” value [3] of the same compound?
**A.** The value was 0.6319.

**Q.** What about the “logFC TRAF1 (Q13077)” value [3] of the same compound?
**A.** Its value is 0.7523.

**Q.** What about the “logFC PDE6D (O43924)” value (Cmp A vs. len, Case B4, 10 μM, 24 hours) of the same compound?
**A.** Its value is −1.494.

**Q.** What about the “IKZF1 (Ikaros) protein level” value [4] of the same compound?
**A.** The value was “decreases across all experimental conditions with stronger effect upon Compound A exposure”.

**Q.** What about the “levels of Group 4 proteins (6 proteins including IKZF3 and a second IKZF1 isoform) upon exposure” value [4] of the same compound?
**A.** Its value is “decrease significantly”.

**Q.** And the “protein abundance levels of Group 3 proteins (SMNX20, SELL, KLF13, WIZ, IKZF1, NFKBIE, TCF7 and IRF8) upon exposure” value [4]?
**A.** The value was “decrease”.

**Q.** What about the “STAT1 protein abundance, log 2 fold-change vs DMSO” value (resistant scenario (Case B4)) of the same compound?
**A.** Its value is −0.018.

**Q.** And the “STAT1 protein abundance, log 2 fold-change vs DMSO” value (sensitive patient sample (Case B3))?
**A.** The value was 0.547.
